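Tested at 5 concentrations; 48 h exposure; 96-well plates; endpoints linearly interpolated, else capped at highest concentration. Here, GI50 denotes the concentration required for 50% inhibition of growth. TGI: total growth inhibition.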
Tests used:
Test in all cases: NCI anticancer screen, dose series, 48 h; in the data active = GI50 below about 0.43 µM; inactive = the rest
SF-295 CNS = tested on: SF-295 CNS
A498 renal = tested on: A498 renal
MDA-MB-435 = tested on: MDA-MB-435
M14 melanoma = tested on: M14 melanoma
RXF 393 renal = tested on: RXF 393 renal
SW-620 colon = tested on: SW-620 colon
A549 NSCLC = tested on: A549 NSCLC
U251 CNS = tested on: U251 CNS
MDA-MB-231 breast = tested on: MDA-MB-231 breast
SNB-19 CNS = tested on: SNB-19 CNS
SK-MEL-28 melanoma = tested on: SK-MEL-28 melanoma
HT29 colon = tested on: HT29 colon
SNB-75 CNS = tested on: SNB-75 CNS
SN12C renal = tested on: SN12C renal
OVCAR-8 ovarian = tested on: OVCAR-8 ovarian
NCI/ADR-RES ovarian = tested on: NCI/ADR-RES ovarian
PC-3 prostate = tested on: PC-3 prostate
EKVX NSCLC = tested on: EKVX NSCLC
OVCAR-3 ovarian = tested on: OVCAR-3 ovarian
OVCAR-4 ovarian = tested on: OVCAR-4 ovarian
TK-10 renal = tested on: TK-10 renal
KM12 colon = tested on: KM12 colon
OVCAR-5 ovarian = tested on: OVCAR-5 ovarian
UO-31 renal = tested on: UO-31 renal
DU-145 prostate = tested on: DU-145 prostate
CAKI-1 renal = tested on: CAKI-1 renal
IGROV1 ovarian = tested on: IGROV1 ovarian
SK-MEL-5 melanoma = tested on: SK-MEL-5 melanoma
HOP-92 NSCLC = tested on: HOP-92 NSCLC
NCI-H23 lung = tested on: NCI-H23 lung
MDA-N = tested on: MDA-N
SF-268 CNS = tested on: SF-268 CNS
ACHN renal = tested on: ACHN renal
HCT-15 colon = tested on: HCT-15 colon
COLO 205 colon = tested on: COLO 205 colon
SF-539 CNS = tested on: SF-539 CNS
RPMI-8226 leukemia = tested on: RPMI-8226 leukemia
MCF7 breast = tested on: MCF7 breast
NCI-H460 lung = tested on: NCI-H460 lung
K-562 leukemia = tested on: K-562 leukemia
SR leukemia = tested on: SR leukemia
HOP-62 NSCLC = tested on: HOP-62 NSCLC
UACC-257 melanoma = tested on: UACC-257 melanoma
MOLT-4 leukemia = tested on: MOLT-4 leukemia
SK-OV-3 ovarian = tested on: SK-OV-3 ovarian
CCRF-CEM leukemia = tested on: CCRF-CEM leukemia
T-47D breast = tested on: T-47D breast
MALME-3M melanoma = tested on: MALME-3M melanoma
UACC-62 melanoma = tested on: UACC-62 melanoma
LOX IMVI melanoma = tested on: LOX IMVI melanoma
NCI-H522 lung = tested on: NCI-H522 lung
SK-MEL-2 melanoma = tested on: SK-MEL-2 melanoma
HL-60(TB) leukemia = tested on: HL-60(TB) leukemia
HCT-116 colon = tested on: HCT-116 colon
786-0 renal = tested on: 786-0 renal
BT-549 breast = tested on: BT-549 breast
HCC-2998 colon = tested on: HCC-2998 colon
NCI-H226 lung = tested on: NCI-H226 lung
HS 578T breast = tested on: HS 578T breast

C[N+]12CCN(c3ccccc31)c1ccccc12
> 10 µM: TGI (SF-295 CNS) | TGI (A498 renal) | TGI (MDA-MB-435) | TGI (M14 melanoma) | TGI (RXF 393 renal) | TGI (SW-620 colon) | TGI (A549 NSCLC) | TGI (U251 CNS) | TGI (MDA-MB-231 breast) | TGI (SNB-19 CNS) | TGI (SK-MEL-28 melanoma) | TGI (HT29 colon) | TGI (SNB-75 CNS) | TGI (SN12C renal) | TGI (OVCAR-8 ovarian) | TGI (NCI/ADR-RES ovarian) | TGI (PC-3 prostate) | TGI (EKVX NSCLC) | TGI (OVCAR-3 ovarian) | TGI (OVCAR-4 ovarian) | TGI (TK-10 renal) | TGI (KM12 colon) | TGI (OVCAR-5 ovarian) | TGI (UO-31 renal) | TGI (DU-145 prostate) | TGI (CAKI-1 renal) | TGI (IGROV1 ovarian) | TGI (HOP-92 NSCLC) | TGI (NCI-H23 lung) | TGI (SF-268 CNS) | TGI (ACHN renal) | TGI (HCT-15 colon) | TGI (COLO 205 colon)
8.56 µM: TGI (MDA-N)
5.42 µM: TGI (SK-MEL-5 melanoma)

CS(C)(=O)=Nn1c(=O)n2n(c1=O)C1c3ccccc3C2c2ccccc21
> 100 µM: TGI (SF-539 CNS) | TGI (RPMI-8226 leukemia) | TGI (MCF7 breast) | TGI (SF-295 CNS) | TGI (A498 renal) | TGI (NCI-H460 lung) | TGI (K-562 leukemia) | TGI (MDA-MB-435) | TGI (M14 melanoma) | TGI (RXF 393 renal) | TGI (SW-620 colon) | TGI (A549 NSCLC) | TGI (U251 CNS) | TGI (MDA-MB-231 breast) | TGI (SNB-19 CNS) | TGI (SR leukemia) | TGI (SK-MEL-28 melanoma) | TGI (HT29 colon) | TGI (OVCAR-8 ovarian) | TGI (NCI/ADR-RES ovarian) | TGI (PC-3 prostate) | TGI (HOP-62 NSCLC) | TGI (EKVX NSCLC) | TGI (UACC-257 melanoma) | TGI (MOLT-4 leukemia) | TGI (SK-OV-3 ovarian) | TGI (CCRF-CEM leukemia) | TGI (T-47D breast) | TGI (OVCAR-3 ovarian) | TGI (MALME-3M melanoma) | TGI (TK-10 renal) | TGI (OVCAR-5 ovarian) | TGI (UO-31 renal) | TGI (DU-145 prostate) | TGI (UACC-62 melanoma) | TGI (LOX IMVI melanoma) | TGI (CAKI-1 renal) | TGI (NCI-H522 lung) | TGI (IGROV1 ovarian) | TGI (SK-MEL-2 melanoma) | TGI (SK-MEL-5 melanoma) | TGI (HOP-92 NSCLC) | TGI (NCI-H23 lung) | TGI (MDA-N) | TGI (HL-60(TB) leukemia) | TGI (ACHN renal) | TGI (HCT-15 colon) | TGI (COLO 205 colon)

CCCCN=C(N)c1ccc(N2CCCN(c3ccc(C(N)=NCCCC)cc3)CC2)cc1
inactive: GI50 (SF-539 CNS) 7.34 µM | GI50 (RPMI-8226 leukemia) 5.37 µM | GI50 (MCF7 breast) 7.44 µM | GI50 (SF-295 CNS) 6.39 µM | GI50 (A498 renal) 0.529 µM | GI50 (NCI-H460 lung) 4.15 µM | GI50 (K-562 leukemia) 3.69 µM | GI50 (HCT-116 colon) 21 µM | GI50 (MDA-MB-435) 14.8 µM | GI50 (M14 melanoma) 43.1 µM | GI50 (SW-620 colon) 13.6 µM | GI50 (A549 NSCLC) 4.07 µM | GI50 (U251 CNS) 4.81 µM | GI50 (MDA-MB-231 breast) 27.7 µM | GI50 (SNB-19 CNS) > 21.4 µM | GI50 (SR leukemia) 1.36 µM | GI50 (SK-MEL-28 melanoma) 31.2 µM | GI50 (HT29 colon) 10.7 µM | GI50 (SNB-75 CNS) 6.29 µM | GI50 (SN12C renal) 16.6 µM | GI50 (OVCAR-8 ovarian) 14.1 µM | GI50 (NCI/ADR-RES ovarian) > 100 µM | GI50 (PC-3 prostate) 11.5 µM | GI50 (HOP-62 NSCLC) 15.8 µM | GI50 (EKVX NSCLC) 10.6 µM | GI50 (UACC-257 melanoma) 10 µM | GI50 (MOLT-4 leukemia) 25.2 µM | GI50 (SK-OV-3 ovarian) > 100 µM | GI50 (CCRF-CEM leukemia) 16.3 µM | GI50 (786-0 renal) > 74.6 µM | GI50 (T-47D breast) 10.9 µM | GI50 (BT-549 breast) 14.4 µM | GI50 (OVCAR-3 ovarian) 8.73 µM | GI50 (OVCAR-4 ovarian) 83.1 µM | GI50 (MALME-3M melanoma) 1 µM | GI50 (TK-10 renal) 11.4 µM | GI50 (KM12 colon) 5.72 µM | GI50 (OVCAR-5 ovarian) 45.7 µM | GI50 (UO-31 renal) > 66.1 µM | GI50 (DU-145 prostate) 25.1 µM | GI50 (UACC-62 melanoma) 7.58 µM | GI50 (LOX IMVI melanoma) 22.5 µM | GI50 (CAKI-1 renal) > 72.3 µM | GI50 (NCI-H522 lung) 11.8 µM | GI50 (IGROV1 ovarian) 24.5 µM | GI50 (SK-MEL-2 melanoma) 12.3 µM | GI50 (SK-MEL-5 melanoma) 5.04 µM | GI50 (HOP-92 NSCLC) 14.6 µM | GI50 (HCC-2998 colon) 8.88 µM | GI50 (NCI-H23 lung) 5.67 µM | GI50 (NCI-H226 lung) 1.66 µM | GI50 (SF-268 CNS) 8.53 µM | GI50 (HS 578T breast) 5.02 µM | GI50 (ACHN renal) > 21.9 µM | GI50 (HCT-15 colon) > 100 µM | GI50 (COLO 205 colon) 6.82 µM
> 58.3 µM: TGI (BT-549 breast)
97.6 µM: TGI (NCI-H460 lung)
44.6 µM: TGI (SK-MEL-2 melanoma)
> 96.6 µM: TGI (MDA-MB-435)
> 59.7 µM: TGI (HT29 colon)
21.7 µM: TGI (SK-MEL-5 melanoma)
30.3 µM: TGI (A498 renal)
> 67.6 µM: TGI (LOX IMVI melanoma)
> 85.9 µM: TGI (IGROV1 ovarian)
66.8 µM: TGI (UACC-257 melanoma)
> 100 µM: TGI (MCF7 breast) | TGI (K-562 leukemia) | TGI (HCT-116 colon) | TGI (M14 melanoma) | TGI (SW-620 colon) | TGI (A549 NSCLC) | TGI (U251 CNS) | TGI (MDA-MB-231 breast) | TGI (SNB-19 CNS) | TGI (SK-MEL-28 melanoma) | TGI (SNB-75 CNS) | TGI (SN12C renal) | TGI (OVCAR-8 ovarian) | TGI (NCI/ADR-RES ovarian) | TGI (PC-3 prostate) | TGI (EKVX NSCLC) | TGI (MOLT-4 leukemia) | TGI (SK-OV-3 ovarian) | TGI (CCRF-CEM leukemia) | TGI (786-0 renal) | TGI (T-47D breast) | TGI (OVCAR-4 ovarian) | TGI (OVCAR-5 ovarian) | TGI (UO-31 renal) | TGI (DU-145 prostate) | TGI (CAKI-1 renal) | TGI (NCI-H522 lung) | TGI (NCI-H23 lung) | TGI (SF-268 CNS) | TGI (ACHN renal) | TGI (HCT-15 colon) | TGI (COLO 205 colon)
4.44 µM: TGI (SR leukemia)
> 50.1 µM: TGI (SF-539 CNS)
> 90.1 µM: TGI (HOP-62 NSCLC)
26.2 µM: TGI (MALME-3M melanoma)
99.8 µM: TGI (NCI-H226 lung)
58.2 µM: TGI (HCC-2998 colon)
> 90.7 µM: TGI (HS 578T breast)
> 84.7 µM: TGI (TK-10 renal)
> 81.7 µM: TGI (OVCAR-3 ovarian)
0.159 µM: TGI (HL-60(TB) leukemia)
47.8 µM: TGI (KM12 colon)
27.5 µM: TGI (UACC-62 melanoma)
57.6 µM: TGI (SF-295 CNS)
> 59.8 µM: TGI (RPMI-8226 leukemia)
> 68.3 µM: TGI (RXF 393 renal)
> 84 µM: TGI (HOP-92 NSCLC)

— PubChem BioAssay (NCI)
